Data: ChEMBL document CHEMBL1201862, “PubChem BioAssay data set” (2004)
One block for each molecule: values may come before it. The source made the active and inactive calls.

Legend:
[1] = molecular target: Eukaryotic translation initiation factor 4E (Mus musculus, UniProt P63073); test: blockers of eIF4G binding by eIF4E – biochemical, TR-FRET, dose response (AID 855); format: functional;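 further: potency for disrupting eIF4E binding to eIF4GI seen as loss of FRET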
[2] = molecular target: T1, Intestinal-type alkaline phosphatase (Homo sapiens, UniProt P09923); test: inhibition of human intestinal alkaline phosphatase – biochemical, luminescent, uHTS hits, set 2, dose response (AID 488793); format: functional
T1 sequence (P09923 whole entry): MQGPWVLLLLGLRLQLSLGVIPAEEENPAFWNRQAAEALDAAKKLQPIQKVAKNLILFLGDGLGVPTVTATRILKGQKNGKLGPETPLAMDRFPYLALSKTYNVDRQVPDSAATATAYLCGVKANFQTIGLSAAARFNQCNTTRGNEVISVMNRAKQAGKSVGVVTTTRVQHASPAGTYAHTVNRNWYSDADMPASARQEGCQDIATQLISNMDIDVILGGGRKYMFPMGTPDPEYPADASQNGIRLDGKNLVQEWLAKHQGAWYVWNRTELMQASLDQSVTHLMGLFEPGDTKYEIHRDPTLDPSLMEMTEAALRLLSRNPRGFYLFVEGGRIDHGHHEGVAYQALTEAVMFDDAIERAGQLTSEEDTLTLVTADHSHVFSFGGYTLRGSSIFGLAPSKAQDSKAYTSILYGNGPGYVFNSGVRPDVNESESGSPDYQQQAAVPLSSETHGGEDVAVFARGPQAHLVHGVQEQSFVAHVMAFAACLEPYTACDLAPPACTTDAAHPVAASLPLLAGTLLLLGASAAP

[3] = molecular target: T1, Intestinal-type alkaline phosphatase; test: Dose Response confirmation of uHTS hits from a small molecule inhibitors of human intestinal alkaline phosphatase via a luminescent assay. [Related pubchem assays (depositor defined):AID2544, AID2574]; format: functional
[4] = molecular target: T2, Alkaline phosphatase, tissue-nonspecific isozyme (Homo sapiens, UniProt P05186); test: inhibition of tissue-nonspecific alkaline phosphatase – biochemical, dose response (AID 488882); format: functional
T2 sequence (P05186 whole entry): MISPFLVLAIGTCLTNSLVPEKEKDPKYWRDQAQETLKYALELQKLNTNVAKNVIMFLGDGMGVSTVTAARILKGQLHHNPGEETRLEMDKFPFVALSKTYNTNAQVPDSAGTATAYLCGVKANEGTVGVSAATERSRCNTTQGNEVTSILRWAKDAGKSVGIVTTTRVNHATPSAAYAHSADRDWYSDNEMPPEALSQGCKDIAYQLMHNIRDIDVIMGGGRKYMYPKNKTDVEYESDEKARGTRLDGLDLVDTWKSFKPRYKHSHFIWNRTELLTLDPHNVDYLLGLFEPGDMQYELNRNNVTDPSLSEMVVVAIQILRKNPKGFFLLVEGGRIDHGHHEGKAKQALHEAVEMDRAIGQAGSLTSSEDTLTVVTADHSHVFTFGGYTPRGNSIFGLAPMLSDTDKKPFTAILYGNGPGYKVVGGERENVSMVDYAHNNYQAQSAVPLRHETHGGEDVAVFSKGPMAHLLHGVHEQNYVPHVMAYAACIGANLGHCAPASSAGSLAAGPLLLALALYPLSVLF

[5] = molecular target: T3, Calpain-2 catalytic subunit (Sus scrofa, UniProt P43367); test: m-calpain protease blockers, concentration series – biochemical, fluorogenic peptide substrate, dose response (AID 1420); format: functional
T3 sequence (P43367 whole entry): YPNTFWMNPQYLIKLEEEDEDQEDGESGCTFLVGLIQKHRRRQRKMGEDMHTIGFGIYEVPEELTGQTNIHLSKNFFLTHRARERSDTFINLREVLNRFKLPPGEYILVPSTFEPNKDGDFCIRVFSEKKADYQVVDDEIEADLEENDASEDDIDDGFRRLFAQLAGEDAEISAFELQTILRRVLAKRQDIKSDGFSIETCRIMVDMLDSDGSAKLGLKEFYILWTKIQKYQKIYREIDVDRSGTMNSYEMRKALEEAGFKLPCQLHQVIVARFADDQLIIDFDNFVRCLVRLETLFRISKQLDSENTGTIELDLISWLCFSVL

[6] = molecular target: T4, Histone-lysine N-methyltransferase NSD2 (Homo sapiens, UniProt O96028); format: biochemical
T4 sequence (O96028 whole entry): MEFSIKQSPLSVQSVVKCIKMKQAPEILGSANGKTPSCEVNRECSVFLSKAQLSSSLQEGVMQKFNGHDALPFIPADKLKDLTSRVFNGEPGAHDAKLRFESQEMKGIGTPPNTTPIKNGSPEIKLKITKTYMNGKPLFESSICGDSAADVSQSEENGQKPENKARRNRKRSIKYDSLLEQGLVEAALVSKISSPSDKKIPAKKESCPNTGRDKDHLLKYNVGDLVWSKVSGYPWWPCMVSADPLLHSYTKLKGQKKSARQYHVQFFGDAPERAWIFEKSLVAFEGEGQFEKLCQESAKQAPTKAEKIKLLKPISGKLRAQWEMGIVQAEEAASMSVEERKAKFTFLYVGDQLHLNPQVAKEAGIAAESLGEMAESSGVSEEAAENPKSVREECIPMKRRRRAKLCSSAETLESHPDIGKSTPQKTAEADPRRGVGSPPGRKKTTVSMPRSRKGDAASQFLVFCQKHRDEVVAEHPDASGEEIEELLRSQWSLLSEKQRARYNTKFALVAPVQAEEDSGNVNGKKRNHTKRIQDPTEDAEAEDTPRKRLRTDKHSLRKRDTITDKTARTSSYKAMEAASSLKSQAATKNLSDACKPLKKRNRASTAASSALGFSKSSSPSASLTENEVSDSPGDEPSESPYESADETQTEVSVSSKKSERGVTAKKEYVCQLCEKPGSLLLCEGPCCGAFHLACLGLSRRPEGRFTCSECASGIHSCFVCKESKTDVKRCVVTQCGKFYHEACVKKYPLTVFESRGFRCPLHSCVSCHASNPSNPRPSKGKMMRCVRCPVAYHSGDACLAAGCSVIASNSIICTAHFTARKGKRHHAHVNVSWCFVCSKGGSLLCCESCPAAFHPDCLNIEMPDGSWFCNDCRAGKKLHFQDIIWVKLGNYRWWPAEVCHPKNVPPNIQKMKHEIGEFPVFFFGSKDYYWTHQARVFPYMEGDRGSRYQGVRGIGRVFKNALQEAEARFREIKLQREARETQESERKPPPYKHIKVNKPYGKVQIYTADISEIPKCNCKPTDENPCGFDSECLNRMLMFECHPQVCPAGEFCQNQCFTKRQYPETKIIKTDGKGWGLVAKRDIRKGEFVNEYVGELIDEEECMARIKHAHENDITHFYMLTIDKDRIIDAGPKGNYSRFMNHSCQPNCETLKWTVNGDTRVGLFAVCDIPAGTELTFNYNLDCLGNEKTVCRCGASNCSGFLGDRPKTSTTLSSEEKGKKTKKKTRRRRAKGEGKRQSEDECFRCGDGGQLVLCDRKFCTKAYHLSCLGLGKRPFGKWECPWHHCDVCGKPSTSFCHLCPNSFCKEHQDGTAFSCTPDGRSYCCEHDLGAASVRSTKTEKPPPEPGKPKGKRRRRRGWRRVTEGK

[7] = molecular target: T5, Mannose-6-phosphate isomerase (Homo sapiens, UniProt P34949); test: MPI enzyme activity inhibition – biochemical, fluorescence intensity, coupled assay, primary screen (AID 1209)
T5 sequence (P34949 whole entry): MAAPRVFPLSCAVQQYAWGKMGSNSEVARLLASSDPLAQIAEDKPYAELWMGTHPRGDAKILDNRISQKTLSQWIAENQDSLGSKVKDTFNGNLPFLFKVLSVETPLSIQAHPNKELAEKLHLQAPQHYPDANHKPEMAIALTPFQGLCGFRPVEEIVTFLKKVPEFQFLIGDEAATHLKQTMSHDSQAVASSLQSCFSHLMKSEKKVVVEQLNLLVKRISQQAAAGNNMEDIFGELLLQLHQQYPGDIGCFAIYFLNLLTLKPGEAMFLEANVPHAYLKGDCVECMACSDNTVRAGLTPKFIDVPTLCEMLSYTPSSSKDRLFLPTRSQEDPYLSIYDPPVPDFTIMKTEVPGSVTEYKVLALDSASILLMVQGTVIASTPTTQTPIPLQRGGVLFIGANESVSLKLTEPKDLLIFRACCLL

[8] = molecular target: Intestinal-type alkaline phosphatase (Mus musculus, UniProt P24822); test: PubChem AID 488874; format: functional
Intestinal-type alkaline phosphatase (Mus musculus, UniProt P24822), sequence (P24822 whole entry): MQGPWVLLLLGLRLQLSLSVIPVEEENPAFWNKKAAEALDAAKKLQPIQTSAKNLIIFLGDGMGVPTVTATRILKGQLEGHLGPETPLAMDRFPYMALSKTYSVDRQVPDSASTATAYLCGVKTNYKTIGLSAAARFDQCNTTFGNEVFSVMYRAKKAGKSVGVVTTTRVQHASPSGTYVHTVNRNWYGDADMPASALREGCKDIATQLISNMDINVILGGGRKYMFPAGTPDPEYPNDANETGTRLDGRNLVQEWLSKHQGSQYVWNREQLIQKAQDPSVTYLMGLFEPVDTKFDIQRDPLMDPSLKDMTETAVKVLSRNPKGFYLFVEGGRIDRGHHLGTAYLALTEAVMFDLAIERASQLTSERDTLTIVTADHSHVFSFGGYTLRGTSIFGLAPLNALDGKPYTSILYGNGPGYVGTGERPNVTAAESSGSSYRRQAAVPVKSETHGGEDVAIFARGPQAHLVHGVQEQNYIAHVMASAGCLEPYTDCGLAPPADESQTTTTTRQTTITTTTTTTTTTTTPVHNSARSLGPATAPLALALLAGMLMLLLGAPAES

[9] = Luminescence Cell-Based Dose Retest to Confirm Inhibitors of Cancer Stem Cells. [Related pubchem assays (depositor defined):AID2717, AID2721]; format: functional; settings: Homo sapiens
[10] = viability loss of HMLE_sh_eGFP cells – cell-based, luminescence, counter-screen for HMLE_sh_ECad selective toxicity project, dose response (AID 463074); format: functional, Homo sapiens;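 further: HMLE human mammary epithelial cells expressing control shRNA against eGFP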
[11] = molecular target: T6, Short transient receptor potential channel 4 (Mus musculus, UniProt Q9QUQ5); test: potency of mouse TRPC4 calcium flux blockers – cell-based, HEK293 TRPC4/mu-opioid, DAMGO stimulus, Fluo-4, dose response (AID 492994); format: functional
T6 sequence (Q9QUQ5 whole entry): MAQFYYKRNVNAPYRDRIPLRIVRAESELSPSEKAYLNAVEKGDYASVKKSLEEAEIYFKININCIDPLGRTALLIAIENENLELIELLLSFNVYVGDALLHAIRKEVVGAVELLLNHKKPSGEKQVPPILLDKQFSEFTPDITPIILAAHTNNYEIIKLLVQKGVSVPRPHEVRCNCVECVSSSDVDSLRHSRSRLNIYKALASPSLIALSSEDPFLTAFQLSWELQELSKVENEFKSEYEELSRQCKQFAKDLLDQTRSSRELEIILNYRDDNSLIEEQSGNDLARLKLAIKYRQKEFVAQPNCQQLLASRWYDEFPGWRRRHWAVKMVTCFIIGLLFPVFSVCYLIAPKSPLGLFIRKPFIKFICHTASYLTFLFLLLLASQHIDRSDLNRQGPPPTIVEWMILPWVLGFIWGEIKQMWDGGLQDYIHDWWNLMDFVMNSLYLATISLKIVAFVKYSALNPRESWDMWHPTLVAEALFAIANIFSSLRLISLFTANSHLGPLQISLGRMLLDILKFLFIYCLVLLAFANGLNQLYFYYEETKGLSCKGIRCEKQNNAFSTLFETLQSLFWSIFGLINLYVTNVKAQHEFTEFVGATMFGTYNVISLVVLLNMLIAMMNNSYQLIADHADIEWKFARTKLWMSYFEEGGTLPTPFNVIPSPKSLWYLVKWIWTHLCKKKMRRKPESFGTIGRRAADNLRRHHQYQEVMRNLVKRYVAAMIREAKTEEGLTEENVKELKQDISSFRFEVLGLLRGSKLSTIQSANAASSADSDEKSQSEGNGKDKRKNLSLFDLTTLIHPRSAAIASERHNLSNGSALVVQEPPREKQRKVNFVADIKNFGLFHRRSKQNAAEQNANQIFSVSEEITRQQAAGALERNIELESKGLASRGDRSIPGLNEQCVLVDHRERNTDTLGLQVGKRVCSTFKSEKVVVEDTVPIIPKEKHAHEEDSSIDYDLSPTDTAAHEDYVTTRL

Eukaryotic translation initiation factor 4E, sequence (P63073 whole entry): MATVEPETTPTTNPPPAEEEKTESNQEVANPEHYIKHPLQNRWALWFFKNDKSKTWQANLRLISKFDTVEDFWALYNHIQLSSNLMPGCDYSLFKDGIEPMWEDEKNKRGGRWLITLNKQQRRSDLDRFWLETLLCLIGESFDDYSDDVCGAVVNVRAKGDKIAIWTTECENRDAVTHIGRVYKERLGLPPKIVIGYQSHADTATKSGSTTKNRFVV

- IC50 [1]: 50 µM (inactive)
- IC50 [2]: 10.2 µM (active)
- IC50 [3]: 9.63 µM (active)
- IC50 [4]: 10.8 µM (active)
- IC50 [5]: 24.6 µM (not active)
- AC50 [6]: > 20 µM (inactive)
- IC50 [7]: > 50 µM (not active)
- IC50 [8]: 11 µM (active)
SMILES: CC[n+]1c(/C=C/c2c[nH]c3ccccc23)ccc2cc(C)ccc21

SMILES: CN(c1ccccc1)c1ccc(/C=C(\C#N)c2nnc3n2CCCCC3)cc1[N+](=O)[O-]
- AC50 [9]: 0.597 µM (active)
- AC50 [10]: 24.3 µM (active)

- IC50 [11]: 20.8 µM (active)
SMILES: COCCN(C)c1cc(C)c2ccccc2n1
